In data set [1] the test system is phosphodiesterase (PDE) from human blood platelets. The data set is described as follows: PDE Inhibition (human blood platelet phosphodiesterase, 3H-cAMP hydrolysis). Type of data set: biochemical. To be noted: 1 μmol/liter 3H-cAMP, 15 minutes at 37° C., pH 7.4. The procedure: cAMP is hydrolyzed to AMP by phosphodiesterase (PDE) from various sources, including blood platelets.
The phosphodiesterase used was prepared by centrifugal extraction at 10,000 G from human blood platelets which were frozen in water and then thawed.
0.3 ml of a mixture containing 0.1 mol/liter of trihydroxy-aminomethane (pH 7.4), 3 mmols/liter of magnesium chloride, 1 mmol/liter of AMP, 1 μmol/liter of ^3 H-cAMP (specific activity about 10 MBq/μmol), PDE and the inhibitor under investigation (water in the case of the control) was incubated for 15 minutes at 37° C. The incubation was stopped by the addition of 0.5 ml zinc sulfate (0.266 mol/liter) and 0.5 ml barium hydroxide (0.226 mol/liter), the precipitate was centrifuged, and the activity remaining in the unreacted ^3 H-cAMP in the supernatant was determined. From a comparison of the results for inhibitor and control cases, the concentration of the respective inhibitor necessary for a 50% inhibiting effect (IC50) was calculated: […]

For another data set, the system named is conscious mice. The data set is described as follows: Determination of the prolongation of bleeding time (tail tip, oral, conscious mice). To be noted: Mus musculus, 2.5 mg/kg oral, after 1 hour, compared to control group, 5 animals per experiment. Type of data set: in vivo. The procedure:
To measure the bleeding time, 2.5 mg/kg of the test compound were administered orally to conscious mice. After one hour, 0.5 mm of the tip of the tail of each mouse was cut off and the droplets of blood were gently removed with filter paper every 30 seconds. The number of drops of blood thus obtained give a bleeding time (5 animals per experiment).
The results of the following table represent the prolongation of the bleeding time in percent as compared to a control group: […]

Data set [2] in a line: Acute toxicity, single oral dose. Format: in vivo, mice. The following applies: mouse, in vivo; single oral dose of 250 mg (E: 1000 mg), 14 days observation, mice; read-out: animals that died out of 10. The procedure: (§1) The acute toxicity of the compounds was determined in groups of 10 mice after oral administration of a single dose (observation period: 14 days): […]
Another data set relates to mice. In words: Acute toxicity, single oral dose. Format: in vivo. To be noted: groups of 10 mice, single oral dose, observation period 14 days; dose at which 0 out of 10 animals died. As to the method: as §1

Each structure is given as a SMILES string. Where only a bound is given, the exact number is not on record here.

`N=S(=O)(CCCCOc1ccc2c(c1)CCC(=O)N2)c1ccccc1` (stereo not shown) [B, 6-(4-phenylsulfoximino-butoxy)-3,4-dihydrocarbostyril] gave an IC50 in data set [1] of 2000 nM. Further, the change in vivo at 2.5 mg/kg in the data set with conscious mice was > 161%. In data set [2], the mortality at 336 h is 0%. Besides, the “Approximate acute toxicity (dose)” value in the data set with mice is recorded as 250 mg.

Regarding `N=S(=O)(CCCCOc1ccc2c(c1)CCC(=O)N2)c1ccc(F)cc1` (stereo not shown) [C, 6-[4-(4-fluorophenyl-sulfoximino)-butoxy]-3,4-dihydrocarbostyril], 1200 nM corresponded to half-maximal inhibition in data set [1] (IC50). In the data set on conscious mice, the change in vivo at 2.5 mg/kg worked out at 125%. Moreover, the mortality at 336 h in data set [2] worked out at 0%. For the same compound, in the data set on mice, the “Approximate acute toxicity (dose)” value came out at 250 mg.

Regarding `CS(=N)(=O)CCCCOc1ccc2c(c1)CCC(=O)N2` (stereo not shown) [Compound A, 6-(4-methylsulfoximino-butoxy)-3,4-dihydrocarbostyril mesitylenesulfonate], inhibition in data set [1] was half-maximal at 45000 nM (IC50). Also, the change in vivo at 2.5 mg/kg in the data set with conscious mice is 73%. Further, in data set [2], the mortality at 336 h was 0%. The “Approximate acute toxicity (dose)” value with mice was 250 mg.

In the case of `Cc1cc(S(=N)(=O)CCCCOc2ccc3[nH]c(=O)ccc3c2)ccc1Br` (stereo not shown) [Compound I, 6-[4-(3-methyl-4-bromophenyl-sulfoximino)-butoxy]-carbostyril], the IC50 in data set [1] was determined as 39 nM. The change in vivo at 2.5 mg/kg with conscious mice is > 275%. Besides, the mortality at 336 h in data set [2] is 0%. The “Approximate acute toxicity (dose)” value with mice was 250 mg.

With `N=S(=O)(CCCCOc1ccc2c(c1)CCC(=O)N2)c1ccc(Cl)cc1` (stereo not shown) [D, 6-[4-(4-chlorophenyl-sulfoximino)-butoxy]-3,4-dihydrocarbostyril], in data set [1], the IC50 turned out to be 840 nM. This compound also showed a change in vivo at 2.5 mg/kg in the data set on conscious mice of 53%. The mortality at 336 h in data set [2] turned out to be 0%. For the same compound, the “Approximate acute toxicity (dose)” value with mice was 250 mg.

In turn, `CC(=O)N=S(=O)(CCCCOc1ccc2c(c1)CCC(=O)N2)c1ccc(Cl)c(Cl)c1` (stereo not shown) [E, 6-[4-(N-acetyl-3,4-dichlorophenyl-sulfoximino)-butoxy]-3,4-dihydrocarbostyril] gave an IC50 in data set [1] of 840 nM. Further, in the data set on conscious mice, the change in vivo at 2.5 mg/kg is > 194%. Further, the mortality at 336 h in data set [2] was 0%. The “Approximate acute toxicity (dose)” value with mice is 1000 mg.

In turn, `Cc1ccc(S(=O)(=O)N=S(=O)(CCCCOc2ccc3c(c2)CCC(=O)N3)c2ccc(Cl)c(Cl)c2)cc1` (stereo not shown) [F, 6-[4-(N-p-toluenesulfonyl-3,4-dichlorophenyl-sulfoximino)-butoxy]-3,4-dihydrocarbostyril] gave an IC50 in data set [1] of 900 nM. Further, the change in vivo at 2.5 mg/kg in the data set with conscious mice is > 212%. In addition, in data set [2], the mortality at 336 h was 0%. For the same compound, the “Approximate acute toxicity (dose)” value in the data set on mice turned out to be 250 mg.

`N=S(=O)(CCCCOc1ccc2[nH]c(=O)ccc2c1)c1ccc(F)cc1` (stereo not shown) [G, 6-[4-(4-fluorophenyl-sulfoximino)-butoxy]-carbostyril] registered an IC50 in data set [1] of 400 nM. Also, in the data set on conscious mice, the change in vivo at 2.5 mg/kg stood at 85%. For the same compound, the mortality at 336 h in data set [2] turned out to be 0%. Moreover, in the data set on mice, the “Approximate acute toxicity (dose)” value was determined as 250 mg.

In data set [1], `N=S(=O)(CCCCOc1ccc2[nH]c(=O)ccc2c1)c1ccc(Cl)cc1` (stereo not shown) [H, 6-[4-(4-chlorophenyl-sulfoximino)-butoxy]-carbostyril] returned a 50% inhibitory concentration (IC50) of 170 nM. Further, the change in vivo at 2.5 mg/kg with conscious mice came to 78%. Further, the mortality at 336 h in data set [2] was 0%. In the data set on mice, the “Approximate acute toxicity (dose)” value was 250 mg.

In data set [1], `CC(C)(C)c1ccc(S(=N)(=O)CCCCOc2ccc3c(c2)CCC(=O)N3)cc1` (stereo not shown) [K, 6-[4-(4-tert.butylphenyl-sulfoximino)-butoxy]-3,4-dihydrocarbostyril] displayed an IC50 of 240 nM. In the data set with conscious mice, the change in vivo at 2.5 mg/kg was > 180%.

Turning to `N=S(=O)(CCCCOc1ccc2c(c1)CCC(=O)N2)c1ccc(C2CCCCC2)cc1` (stereo not shown) [L, 6-[4-(4-cyclohexylphenyl-sulfoximino)-butoxy]-3,4-dihydrocarbostyril], the IC50 in data set [1] was 52 nM. For the same compound, the change in vivo at 2.5 mg/kg in the data set on conscious mice is > 191%.

Consider `CC(C)(C)c1ccc(S(=N)(=O)CCCCOc2ccc3[nH]c(=O)ccc3c2)cc1` (stereo not shown) [M, 6-[4-(4-tert.butylphenyl-sulfoximino)-butoxy]-carbostyril], for which it took 210 nM to reach half-maximal inhibition in data set [1] (IC50). Also, the change in vivo at 2.5 mg/kg in the data set on conscious mice is > 191%.

`N=S(=O)(CCCCOc1ccc2[nH]c(=O)ccc2c1)C1CCCCC1` (stereo not shown) [N, 6-(4-cyclohexylsulfoximino-butoxy)-carbostyril] came in with an IC50 in data set [1] of 680 nM. For the same compound, in the data set on conscious mice, the change in vivo at 2.5 mg/kg was > 184%.

For `CCCC(=O)N=S(=O)(CCCCOc1ccc2c(c1)CCC(=O)N2)c1ccc(Cl)c(Cl)c1` (stereo not shown) [O, 6-[4-(N-butyryl-3,4-dichlorophenyl-sulfoximino)-butoxy]-3,4-dihydrocarbostyril], in data set [1], half-maximal inhibition (IC50) required 530 nM. Besides, in the data set on conscious mice, the change in vivo at 2.5 mg/kg is > 233%.

On to `CC(=O)N=S(=O)(CCCCOc1ccc2c(c1)C(C)(C)C(=O)N2)c1ccc(Cl)cc1` (stereo not shown) [P, 5-[4-(N-Acetyl-4-chlorophenyl-sulfoximino)-butoxy]-3,3-dimethyl-indolin-2-one], for which 1800 nM corresponded to half-maximal inhibition in data set [1] (IC50). Moreover, the change in vivo at 2.5 mg/kg with conscious mice was > 169%.

Regarding `COc1ccc(S(=O)(CCCCOc2ccc3c(c2)CCC(=O)N3)=NC(=O)c2ccc(C(C)(C)C)cc2)cc1OC` (stereo not shown) [Q, 6-[4-(N-tert.benzoyl-3,4-dimethoxyphenyl-sulfoximino)-butoxy]-3,4-dihydrocarbostyril], in data set [1], inhibition was half-maximal at 3100 nM (IC50). Further, in the data set with conscious mice, the change in vivo at 2.5 mg/kg is > 158%.

In turn, `COc1ccc(S(=N)(=O)CCCCOc2ccc3c(c2)CCC(=O)N3)cc1OC` (stereo not shown) [R, 6-[4-(3,4-dimethoxyphenyl-sulfoximino)-butoxy]-3,4-dihydrocarbostyril] registered a half-inhibitory concentration (IC50) in data set [1] of 1600 nM. For the same compound, in the data set on conscious mice, the change in vivo at 2.5 mg/kg was > 218%.

In general, IC50 refers to the concentration needed to halve the response being measured.

These data come from patent publication US4551464A, “Antithrombotic sulfoximino carbostyrils” (Dr. Karl Thomae Gesellschaft mit beschrankter Haftung, priority 1981, dated 1985).
